Calls of active or inactive are those of the source. No rule for the calls is given here.
System: rodent lifetime carcinogenesis bioassay, tumor incidence TD50
Test: chronic cancer bioassays in animals – CPDB, compiled studies (AID 1745844)

NNCCO
TD50 (hamster, strain Syrian Golden, females, in drinking water, site: liver, lesion: hepatoma, dosed 84 weeks, study length 84 weeks): 148 mg/kg/day (inactive) | TD50 (hamster, strain Syrian Golden, males, in drinking water, site: liver, lesion: hepatoma, dosed 84 weeks, study length 84 weeks): 84.4 mg/kg/day (inactive) | TD50 (mouse, strain B6AKF1, females, oral dosing, site: any site (literature study), lesion: several types, types named in the paper, dosed 78 weeks, study length 78 weeks): 5.34 mg/kg/day | TD50 (mouse, strain B6AKF1, males, oral dosing, site: any site (literature study), lesion: several types, types named in the paper, dosed 78 weeks, study length 78 weeks): 0.404 mg/kg/day | TD50 (mouse, strain B6AKF1, males, oral dosing, site: liver, lesion: hepatoma, dosed 78 weeks, study length 78 weeks): 0.314 mg/kg/day | TD50 (mouse, strain B6C3F1, females, oral dosing, site: any site (literature study), lesion: several types, types named in the paper, dosed 78 weeks, study length 78 weeks): 4.77 mg/kg/day | TD50 (mouse, strain B6C3F1, females, oral dosing, site: liver, lesion: hepatoma, dosed 78 weeks, study length 78 weeks): 4.77 mg/kg/day | TD50 (mouse, strain B6C3F1, females, oral dosing, site: lung, lesion: adenoma, dosed 78 weeks, study length 78 weeks): 4.77 mg/kg/day | TD50 (mouse, strain B6C3F1, males, oral dosing, site: any site (literature study), lesion: several types, types named in the paper, dosed 78 weeks, study length 78 weeks): 0.713 mg/kg/day | TD50 (mouse, strain B6C3F1, males, oral dosing, site: liver, lesion: hepatoma, dosed 78 weeks, study length 78 weeks): 0.541 mg/kg/day | carcinogen call (mouse, strain Swiss, females, in drinking water, site: lung, lesion: one or several types, types not named, dosed 75 weeks, study length 75 weeks): negative (inactive) | carcinogen call (mouse, strain Swiss, males, in drinking water, site: liver, lesion: several types, types named in the paper, dosed 75 weeks, study length 75 weeks): negative (inactive) | carcinogen call (mouse, strain Swiss, males, in drinking water, site: lung, lesion: one or several types, types not named, dosed 75 weeks, study length 75 weeks): negative (inactive)

CC(C)OC(=O)COc1ccc(Cl)cc1Cl
TD50 (mouse, strain B6AKF1, females, oral dosing, site: any site (literature study), lesion: several types, types named in the paper, dosed 76 weeks, study length 76 weeks): 83.2 mg/kg/day (inactive) | TD50 (mouse, strain B6AKF1, females, oral dosing, site: liver, lesion: hepatocellular carcinoma, dosed 76 weeks, study length 76 weeks): 94.7 mg/kg/day (inactive) | carcinogen call (mouse, strain B6AKF1, females, oral dosing, site: lung, lesion: adenoma, dosed 76 weeks, study length 76 weeks): negative (inactive) | carcinogen call (mouse, strain B6AKF1, males, oral dosing, site: any site (literature study), lesion: several types, types named in the paper, dosed 76 weeks, study length 76 weeks): negative (inactive) | carcinogen call (mouse, strain B6AKF1, males, oral dosing, site: liver, lesion: hepatoma, dosed 76 weeks, study length 76 weeks): negative (inactive) | carcinogen call (mouse, strain B6AKF1, males, oral dosing, site: lung, lesion: adenoma, dosed 76 weeks, study length 76 weeks): negative (inactive) | TD50 (mouse, strain B6C3F1, females, oral dosing, site: any site (literature study), lesion: several types, types named in the paper, dosed 76 weeks, study length 76 weeks): 48.7 mg/kg/day (inactive) | TD50 (mouse, strain B6C3F1, females, oral dosing, site: liver, lesion: hepatoma, dosed 76 weeks, study length 76 weeks): 100 mg/kg/day (inactive) | TD50 (mouse, strain B6C3F1, females, oral dosing, site: lung, lesion: adenoma, dosed 76 weeks, study length 76 weeks): 100 mg/kg/day (inactive) | TD50 (mouse, strain B6C3F1, males, oral dosing, site: any site (literature study), lesion: several types, types named in the paper, dosed 76 weeks, study length 76 weeks): 16.4 mg/kg/day (inactive) | TD50 (mouse, strain B6C3F1, males, oral dosing, site: liver, lesion: hepatoma, dosed 76 weeks, study length 76 weeks): 93.6 mg/kg/day (inactive) | TD50 (mouse, strain B6C3F1, males, oral dosing, site: lung, lesion: adenoma, dosed 76 weeks, study length 76 weeks): 21.3 mg/kg/day (inactive)

C=CCOCC1CO1 (stereo not drawn)
TD50 (mouse, strain B6C3F1, females, inhaled, site: Harderian gland, lesion: adenoma, dosed 102 weeks, study length 105 weeks): 121 mg/kg/day | TD50 (mouse, strain B6C3F1, females, inhaled, site: lung, lesion: alveolar/bronchiolar adenoma + alveolar/bronchiolar carcinoma, dosed 102 weeks, study length 105 weeks): 123 mg/kg/day | TD50 (mouse, strain B6C3F1, females, inhaled, site: nasal cavity, respiratory epithelium, lesion: adenoma, dosed 102 weeks, study length 105 weeks): 614 mg/kg/day | TD50 (mouse, strain B6C3F1, males, inhaled, site: lung, lesion: alveolar/bronchiolar adenoma + alveolar/bronchiolar carcinoma, dosed 102 weeks, study length 105 weeks): 727 mg/kg/day | TD50 (mouse, strain B6C3F1, males, inhaled, site: nasal cavity, respiratory epithelium, lesion: adenoma, dosed 102 weeks, study length 105 weeks): 182 mg/kg/day | TD50 (rat, strain Osborne-Mendel, females, inhaled, site: any site (literature study), lesion: several types, types named in the paper, dosed 103 weeks, study length 106 weeks): 25.9 mg/kg/day (inactive) | TD50 (rat, strain Osborne-Mendel, males, inhaled, site: any site (literature study), lesion: several types, types named in the paper, dosed 103 weeks, study length 106 weeks): 1.01 mg/kg/day | TD50 (rat, strain Osborne-Mendel, males, inhaled, site: nasal cavity, olfactory epithelium + nasal cavity, respiratory epithelium, lesion: adenocarcinoma + papillary adenoma + squamous-cell carcinoma, dosed 103 weeks, study length 106 weeks): 14.9 mg/kg/day

ClC1=C(Cl)[C@]2(Cl)[C@@H]3[C@H]4C[C@H]([C@@H]5O[C@H]45)[C@@H]3[C@@]1(Cl)C2(Cl)Cl
TD50 (mouse, strain B6C3F1, females, in feed, site: any site (literature study), lesion: several types, types named in the paper, dosed 80 weeks, study length 90 weeks): 6.88 mg/kg/day (inactive) | TD50 (mouse, strain B6C3F1, females, in feed, site: lung, lesion: alveolar/bronchiolar adenoma + alveolar/bronchiolar carcinoma, dosed 80 weeks, study length 90 weeks): 67 mg/kg/day | TD50 (mouse, strain B6C3F1, males, in feed, site: any site (literature study), lesion: several types, types named in the paper, dosed 80 weeks, study length 90 weeks): 0.546 mg/kg/day (inactive) | TD50 (mouse, strain B6C3F1, males, in feed, site: liver, lesion: hepatocellular adenoma + hepatocellular carcinoma + neoplastic nodule, dosed 80 weeks, study length 90 weeks): 0.854 mg/kg/day | TD50 (mouse, strain B6C3F1, males, in feed, site: lung, lesion: alveolar/bronchiolar adenoma + alveolar/bronchiolar carcinoma, dosed 80 weeks, study length 90 weeks): 1.27 mg/kg/day | TD50 (rat, strain Osborne-Mendel, females, in feed, site: adrenal gland, lesion: adenoma, NOS + carcinoma, NOS, dosed 80 weeks, study length 109 weeks): 0.227 mg/kg/day (inactive) | carcinogen call (rat, strain Osborne-Mendel, females, in feed, site: any site (literature study), lesion: several types, types named in the paper, dosed 80 weeks, study length 110 weeks): negative (inactive) | carcinogen call (rat, strain Osborne-Mendel, females, in feed, site: any site (literature study), lesion: several types, types named in the paper, dosed 117 weeks, study length 121 weeks): negative (inactive) | TD50 (rat, strain Osborne-Mendel, females, in feed, site: liver, lesion: hemangioma, dosed 117 weeks, study length 121 weeks): 42.3 mg/kg/day (inactive) | TD50 (rat, strain Osborne-Mendel, females, in feed, site: liver, lesion: hepatocellular adenoma + hepatocellular carcinoma + neoplastic nodule, dosed 80 weeks, study length 110 weeks): 7.44 mg/kg/day | TD50 (rat, strain Osborne-Mendel, females, in feed, site: pituitary gland, lesion: adenoma, NOS, dosed 80 weeks, study length 109 weeks): 0.579 mg/kg/day | TD50 (rat, strain Osborne-Mendel, males, in feed, site: adrenal gland, lesion: adenoma, NOS + carcinoma, NOS, dosed 80 weeks, study length 110 weeks): 0.553 mg/kg/day (inactive) | TD50 (rat, strain Osborne-Mendel, males, in feed, site: adrenal gland, lesion: adenoma, NOS, dosed 80 weeks, study length 110 weeks): 0.66 mg/kg/day | TD50 (rat, strain Osborne-Mendel, males, in feed, site: all sites, lesion: hemangioma, dosed 80 weeks, study length 110 weeks): 0.661 mg/kg/day | TD50 (rat, strain Osborne-Mendel, males, in feed, site: any site (literature study), lesion: several types, types named in the paper, dosed 80 weeks, study length 110 weeks): 0.776 mg/kg/day (inactive) | carcinogen call (rat, strain Osborne-Mendel, males, in feed, site: any site (literature study), lesion: several types, types named in the paper, dosed 121 weeks, study length 126 weeks): negative (inactive) | carcinogen call (rat, strain Osborne-Mendel, males, in feed, site: liver, lesion: hemangioma, dosed 121 weeks, study length 126 weeks): negative (inactive) | TD50 (rat, strain Osborne-Mendel, males, in feed, site: pancreatic islets, lesion: islet-cell carcinoma, dosed 80 weeks, study length 110 weeks): 1.75 mg/kg/day

CCNC(=O)N(CCO)N=O
TD50 (rat, strain Fischer 344, females, in drinking water, site: mammary tissue, wider than the gland, lesion: carcinoma, dosed 30 weeks, study length 104 weeks): 0.501 mg/kg/day | TD50 (rat, strain Fischer 344, males, in drinking water, site: liver, lesion: one or several types, types not named, dosed 30 weeks, study length 104 weeks): 1.09 mg/kg/day | TD50 (rat, strain Fischer 344, males, in drinking water, site: lung, lesion: one or several types, types not named, dosed 30 weeks, study length 104 weeks): 0.446 mg/kg/day | TD50 (rat, strain Fischer 344, males, in drinking water, site: nervous system, lesion: one or several types, types not named, dosed 30 weeks, study length 104 weeks): 0.754 mg/kg/day | TD50 (rat, strain Fischer 344, males, in drinking water, site: skin, lesion: one or several types, types not named, dosed 30 weeks, study length 104 weeks): 0.641 mg/kg/day | TD50 (rat, strain Fischer 344, males, in drinking water, site: tunica vaginalis, lesion: mesothelioma, dosed 30 weeks, study length 104 weeks): 0.576 mg/kg/day

CC(=O)OC[C@H]1O[C@@](COC(=O)C(C)C)(O[C@H]2O[C@H](COC(C)=O)[C@@H](OC(=O)C(C)C)[C@H](OC(=O)C(C)C)[C@H]2OC(=O)C(C)C)[C@@H](OC(=O)C(C)C)[C@@H]1OC(=O)C(C)C
carcinogen call (mouse, strain B6C3F1, females, in feed, site: any site (literature study), lesion: several types, types named in the paper, dosed 104 weeks, study length 104 weeks): negative (inactive) | carcinogen call (mouse, strain B6C3F1, males, in feed, site: any site (literature study), lesion: several types, types named in the paper, dosed 104 weeks, study length 104 weeks): negative (inactive) | TD50 (rat, strain Fischer 344, females, in feed, site: any site (literature study), lesion: several types, types named in the paper, dosed 52 weeks, study length 52 weeks): 3250 mg/kg/day (inactive) | carcinogen call (rat, strain Fischer 344, females, in feed, site: any site (literature study), lesion: several types, types named in the paper, dosed 104 weeks, study length 104 weeks): negative (inactive) | TD50 (rat, strain Fischer 344, females, in feed, site: liver, lesion: hepatocellular adenoma, dosed 52 weeks, study length 52 weeks): 3250 mg/kg/day (inactive) | carcinogen call (rat, strain Fischer 344, males, in feed, site: any site (literature study), lesion: several types, types named in the paper, dosed 52 weeks, study length 52 weeks): negative (inactive) | carcinogen call (rat, strain Fischer 344, males, in feed, site: any site (literature study), lesion: several types, types named in the paper, dosed 104 weeks, study length 104 weeks): negative (inactive) | carcinogen call (rat, strain Fischer 344, males, in feed, site: liver, lesion: one or several types, types not named, dosed 52 weeks, study length 52 weeks): negative (inactive)

C[N+](C)(C)CCO
TD50 (mouse, strain C3H/HeN, males, in feed, site: liver, lesion: hepatocellular adenoma, dosed 52 weeks, study length 52 weeks): 5650 mg/kg/day | TD50 (mouse, strain C3H/HeN, males, in feed, site: liver, lesion: hepatocellular carcinoma, dosed 52 weeks, study length 52 weeks): 6060 mg/kg/day | TD50 (mouse, strain C3H/HeN, males, in feed, site: liver, lesion: several types, types named in the paper, dosed 52 weeks, study length 52 weeks): 2770 mg/kg/day | carcinogen call (rat, strain Fischer 344, males, in feed, site: liver, lesion: neoplastic nodule, dosed 72 weeks, study length 103 weeks): negative (inactive)

NC(=O)CCCCn1ccc(NC(N)=NCC(F)(F)F)n1
TD50 (mouse, strain B6C3F1, females, in feed, site: gastric mucosa, lesion: carcinoid tumor, malignant, dosed 91 weeks, study length 91 weeks): 956 mg/kg/day | TD50 (mouse, strain B6C3F1, males, in feed, site: gastric mucosa, lesion: carcinoid tumor, malignant, dosed 91 weeks, study length 91 weeks): 401 mg/kg/day | TD50 (rat, strain Sprague-Dawley, females, in feed, site: gastric mucosa, lesion: carcinoid tumor, malignant, dosed 104 weeks, study length 104 weeks): 1350 mg/kg/day | TD50 (rat, strain Sprague-Dawley, males, in feed, site: gastric mucosa, lesion: carcinoid tumor, malignant, dosed 104 weeks, study length 104 weeks): 1030 mg/kg/day
